Source: ChEMBL document CHEMBL3797052 (Eur J Med Chem, 2016)

Tested on: not listed separately
Assay: Antiproliferative activity against human NCI-ADR-RES cells assessed as cell growth at 10^-5 M after 48 hrs by sulforhodamine B assay
Assay type: functional
Settings: read-out: Activity
With `CNC(=O)c1cc(Oc2ccc3nc(NC(=O)c4ccc5ncccc5c4)sc3c2)ccn1` the growth at 10 µM was 88.8%.

Tested on: NCI-H522
Assay: Antiproliferative activity against human NCI-H522 cells assessed as growth inhibition after 48 hrs by sulforhodamine B assay
Assay type: functional
Settings: NCI-H522, 48 h
In the case of `CNC(=O)c1cc(Oc2ccc(NC(=O)Nc3ccc(Cl)c(C(F)(F)F)c3)cc2)ccn1` [SORAFENIB], the GI50 is reported as 2 µM and the TGI is reported as 6.31 µM.

Tested on: HT-29
Assay: Antiproliferative activity against human HT-29 cells assessed as cell growth at 10^-5 M after 48 hrs by sulforhodamine B assay
Assay type: functional
Settings: HT-29, 48 h, read-out: Activity
In the case of `CNC(=O)c1cc(Oc2ccc3nc(NC(=O)c4ccc5ncccc5c4)sc3c2)ccn1`, the growth at 10 µM is reported as 69.9%.

Tested on: not listed separately
Assay: Antiproliferative activity against human LOXIMVI cells assessed as cell growth at 10^-5 M after 48 hrs by sulforhodamine B assay
Assay type: functional
Settings: LOX IMVI, read-out: Activity
Work on `CNC(=O)c1cc(Oc2ccc3nc(NC(=O)c4ccc5ncccc5c4)sc3c2)ccn1` yielded a growth at 10 µM of 99.6%.

Tested on: ACHN
Assay: Antiproliferative activity against human ACHN cells assessed as cell growth at 10^-5 M after 48 hrs by sulforhodamine B assay
Assay type: functional
Settings: read-out: Activity
In the case of `CNC(=O)c1cc(Oc2ccc3nc(NC(=O)c4ccc5ncccc5c4)sc3c2)ccn1`, the growth at 10 µM is reported as 102%.

Tested on: not listed separately
Assay: Antiproliferative activity against human HCT116 cells assessed as cell growth at 10^-5 M after 48 hrs by sulforhodamine B assay
Assay type: functional
Settings: HCT-116, 48 h, read-out: Activity
`CNC(=O)c1cc(Oc2ccc3nc(NC(=O)c4ccc5ncccc5c4)sc3c2)ccn1` showed a growth at 10 µM of 103%.

Tested on: not listed separately
Assay: Antiproliferative activity against human UACC62 cells assessed as cell growth at 10^-5 M after 48 hrs by sulforhodamine B assay
Assay type: functional
Settings: UACC-62, 48 h, read-out: Activity
For `CNC(=O)c1cc(Oc2ccc3nc(NC(=O)c4ccc5ncccc5c4)sc3c2)ccn1`, the growth at 10 µM was 94.9%.

Tested on: SR
Assay: Antiproliferative activity against human SR cells assessed as cell growth at 10^-5 M after 48 hrs by sulforhodamine B assay
Assay type: functional
Settings: read-out: Activity
Work on `CNC(=O)c1cc(Oc2ccc3nc(NC(=O)c4ccc5ncccc5c4)sc3c2)ccn1` yielded a growth at 10 µM of 88.8%.

Tested on: not listed separately
Assay: Antiproliferative activity against human DU145 cells assessed as cell growth at 10^-5 M after 48 hrs by sulforhodamine B assay
Assay type: functional
Settings: DU-145, 48 h, read-out: Activity
Compound `CNC(=O)c1cc(Oc2ccc3nc(NC(=O)c4ccc5ncccc5c4)sc3c2)ccn1` has a growth at 10 µM of 105%.

Tested on: not listed separately
Assay: Antiproliferative activity against human SNB19 cells assessed as cell growth at 10^-5 M after 48 hrs by sulforhodamine B assay
Assay type: functional
Settings: SNB-19, 48 h, read-out: Activity
For `CNC(=O)c1cc(Oc2ccc3nc(NC(=O)c4ccc5ncccc5c4)sc3c2)ccn1`, the growth at 10 µM was 95.1%.

Tested on: not listed separately
Assay: Antiproliferative activity against human RXF393 cells assessed as cell growth at 10^-5 M after 48 hrs by sulforhodamine B assay
Assay type: functional
Settings: RXF 393, 48 h, read-out: Activity
In the case of `CNC(=O)c1cc(Oc2ccc3nc(NC(=O)c4ccc5ncccc5c4)sc3c2)ccn1`, the growth at 10 µM is reported as 109%.

Tested on: CCRF-CEM
Assay: Antiproliferative activity against human CCRF-CEM cells assessed as cell growth at 10^-5 M after 48 hrs by sulforhodamine B assay
Assay type: functional
Settings: read-out: Activity
`CNC(=O)c1cc(Oc2ccc3nc(NC(=O)c4ccc5ncccc5c4)sc3c2)ccn1` showed a growth at 10 µM of 91%.

Tested on: not listed separately
Assay: Antiproliferative activity against human HCC2998 cells assessed as cell growth at 10^-5 M after 48 hrs by sulforhodamine B assay
Assay type: functional
Settings: HCC 2998, 48 h, read-out: Activity
Work on `CNC(=O)c1cc(Oc2ccc3nc(NC(=O)c4ccc5ncccc5c4)sc3c2)ccn1` yielded a growth at 10 µM of 106%.

Tested on: not listed separately
Assay: Antiproliferative activity against human SF268 cells assessed as cell growth at 10^-5 M after 48 hrs by sulforhodamine B assay
Assay type: functional
Settings: SF-268, 48 h, read-out: Activity
In the case of `CNC(=O)c1cc(Oc2ccc3nc(NC(=O)c4ccc5ncccc5c4)sc3c2)ccn1`, the growth at 10 µM is reported as 97.5%.

Tested on: not listed separately
Assay: Antiproliferative activity against human SW620 cells assessed as cell growth at 10^-5 M after 48 hrs by sulforhodamine B assay
Assay type: functional
Settings: SW-620, 48 h, read-out: Activity
`CNC(=O)c1cc(Oc2ccc3nc(NC(=O)c4ccc5ncccc5c4)sc3c2)ccn1` showed a growth at 10 µM of 112%.

Tested on: not listed separately
Assay: Antiproliferative activity against human PC3 cells assessed as cell growth at 10^-5 M after 48 hrs by sulforhodamine B assay
Assay type: functional
Settings: PC-3, 48 h, read-out: Activity
`CNC(=O)c1cc(Oc2ccc3nc(NC(=O)c4ccc5ncccc5c4)sc3c2)ccn1` gave a growth at 10 µM of 93.2%.

Tested on: not listed separately
Assay: Antiproliferative activity against human SF539 cells assessed as cell growth at 10^-5 M after 48 hrs by sulforhodamine B assay
Assay type: functional
Settings: SF-539, 48 h, read-out: Activity
`CNC(=O)c1cc(Oc2ccc3nc(NC(=O)c4ccc5ncccc5c4)sc3c2)ccn1` showed a growth at 10 µM of 107%.

Tested on: EKVX
Assay: Antiproliferative activity against human EKVX cells assessed as cell growth at 10^-5 M after 48 hrs by sulforhodamine B assay
Assay type: functional
Settings: read-out: Activity
`CNC(=O)c1cc(Oc2ccc3nc(NC(=O)c4ccc5ncccc5c4)sc3c2)ccn1` showed a growth at 10 µM of 87.5%.

Tested on: not listed separately
Assay: Antiproliferative activity against human OVCAR3 cells assessed as growth inhibition after 48 hrs by sulforhodamine B assay
Assay type: functional
Settings: OVCAR-3, 48 h
Work on `CNC(=O)c1cc(Oc2ccc(NC(=O)Nc3ccc(Cl)c(C(F)(F)F)c3)cc2)ccn1` [SORAFENIB] yielded a GI50 of 3.16 µM and a TGI of 12.6 µM.

Tested on: NCI-H322M
Assay: Antiproliferative activity against human NCI-H322M cells assessed as cell growth at 10^-5 M after 48 hrs by sulforhodamine B assay
Assay type: functional
Settings: read-out: Activity
`CNC(=O)c1cc(Oc2ccc3nc(NC(=O)c4ccc5ncccc5c4)sc3c2)ccn1` showed a growth at 10 µM of 99%.

Tested on: not listed separately
Assay: Antiproliferative activity against human HL-60(TB) cells assessed as cell growth at 10^-5 M after 48 hrs by sulforhodamine B assay
Assay type: functional
Settings: HL-60, 48 h, read-out: Activity
Work on `CNC(=O)c1cc(Oc2ccc3nc(NC(=O)c4ccc5ncccc5c4)sc3c2)ccn1` yielded a growth at 10 µM of 87.5%.

Tested on: MDA-MB-435
Assay: Antiproliferative activity against human MDA-MB-435 cells assessed as cell growth at 10^-5 M after 48 hrs by sulforhodamine B assay
Assay type: functional
Settings: MDA-MB-435, 48 h, read-out: Activity
For `CNC(=O)c1cc(Oc2ccc3nc(NC(=O)c4ccc5ncccc5c4)sc3c2)ccn1`, the growth at 10 µM was 91.6%.

Tested on: K562
Assay: Antiproliferative activity against human K562 cells assessed as cell growth at 10^-5 M after 48 hrs by sulforhodamine B assay
Assay type: functional
Settings: K562, 48 h, read-out: Activity
Compound `CNC(=O)c1cc(Oc2ccc3nc(NC(=O)c4ccc5ncccc5c4)sc3c2)ccn1` has a growth at 10 µM of 93.7%.

Tested on: NCI-H23
Assay: Antiproliferative activity against human NCI-H23 cells assessed as cell growth at 10^-5 M after 48 hrs by sulforhodamine B assay
Assay type: functional
Settings: NCI-H23, 48 h, read-out: Activity
In the case of `CNC(=O)c1cc(Oc2ccc3nc(NC(=O)c4ccc5ncccc5c4)sc3c2)ccn1`, the growth at 10 µM is reported as 92.7%.

Tested on: not listed separately
Assay: Antiproliferative activity against human OVCAR5 cells assessed as cell growth at 10^-5 M after 48 hrs by sulforhodamine B assay
Assay type: functional
Settings: OVCAR-5, 48 h, read-out: Activity
For `CNC(=O)c1cc(Oc2ccc3nc(NC(=O)c4ccc5ncccc5c4)sc3c2)ccn1`, the growth at 10 µM was 106%.

Tested on: not listed separately
Assay: Antiproliferative activity against human SF295 cells assessed as cell growth at 10^-5 M after 48 hrs by sulforhodamine B assay
Assay type: functional
Settings: SF-295, 48 h, read-out: Activity
In the case of `CNC(=O)c1cc(Oc2ccc3nc(NC(=O)c4ccc5ncccc5c4)sc3c2)ccn1`, the growth at 10 µM is reported as 86.9%.

Tested on: U-251
Assay: Antiproliferative activity against human U251 cells assessed as cell growth at 10^-5 M after 48 hrs by sulforhodamine B assay
Assay type: functional
Settings: U-251, 48 h, read-out: Activity
Work on `CNC(=O)c1cc(Oc2ccc3nc(NC(=O)c4ccc5ncccc5c4)sc3c2)ccn1` yielded a growth at 10 µM of 93.6%.

Tested on: SK-MEL-5
Assay: Antiproliferative activity against human SK-MEL-5 cells assessed as cell growth at 10^-5 M after 48 hrs by sulforhodamine B assay
Assay type: functional
Settings: SK-MEL-5, 48 h, read-out: Activity
For `CNC(=O)c1cc(Oc2ccc3nc(NC(=O)c4ccc5ncccc5c4)sc3c2)ccn1`, the growth at 10 µM was 86.4%.

Tested on: U-251
Assay: Antiproliferative activity against human U251 cells assessed as growth inhibition after 48 hrs by sulforhodamine B assay
Assay type: functional
Settings: U-251, 48 h
Compound `CNC(=O)c1cc(Oc2ccc(NC(=O)Nc3ccc(Cl)c(C(F)(F)F)c3)cc2)ccn1` [SORAFENIB] has a GI50 of 2 µM and a TGI of 6.31 µM.

Tested on: MDA-MB-468
Assay: Antiproliferative activity against human MDA-MB-468 cells assessed as cell growth at 10^-5 M after 48 hrs by sulforhodamine B assay
Assay type: functional
Settings: MDA-MB-468, 48 h, read-out: Activity
With `CNC(=O)c1cc(Oc2ccc3nc(NC(=O)c4ccc5ncccc5c4)sc3c2)ccn1` the growth at 10 µM was 73.7%.
